The text below walks through data of ChEMBL document CHEMBL1201862, “PubChem BioAssay data set” (2004).

What all share (test): NCI-60 cell line screen, 48 h
Test [1] relates to HCT-116.
Test [2] has as its system MDA-N.
Test [3] concerns SK-MEL-2.
In test [4] the test system is UACC-62.
Test [5] has as its system CAKI-1.
Test [6] deals with COLO 205.
The subject of test [7] is CCRF-CEM.
Test [8] deals with OVCAR-8.
Test [9] has as its system SNB-75.
Test [10] relates to PC-3.
The subject of test [11] is SF-268.
Test [12] relates to SW-620.
Test [13] has as its system 786-0.
Test [14] concerns HT-29.
Test [15] deals with ACHN.
Test [16] relates to A498.
The test system of test [17] is SK-MEL-28.
The test system of test [18] is TK-10.
Test [19] relates to LOX IMVI.
Test [20] has as its system SR.

Molecules are shown by their SMILES.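 Dose response: 5 concentrations. Exposure: 48 h. Format: 96-well plates. Endpoint: linear interpolation; highest concentration if not reached. GI50 = concentration required for 50% inhibition of growth.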 Activity calls are given as the source filed them. Rule as the data show it: active = GI50 up to about 1.1 µM and inactive = higher.

With `COc1ccc(-c2nc(O)c3ccccc3n2)c(OC)c1`, the GI50 in [1], in [2], in test [3], in test [4], in [5] and in [6] was > 100 µM (inactive) throughout. The GI50 in [7], in [8], in test [9], in test [10], in [11] and in test [12] was > 100 µM (inactive) throughout. Further, the GI50 in [13], in test [14], in [15] and in [16] was > 100 µM (inactive) throughout.
Turning to `CCSc1n/c(=C\c2ccc(N(C)C)cc2)c2nnnn12`, the GI50 in test [1], in [2], in test [3], in test [4], in [5] and in test [6] was > 100 µM (inactive) each time. The GI50 in test [7], in [8], in test [9], in test [10], in test [17] and in test [11] was > 100 µM (inactive) throughout. Further, the GI50 in test [12], in test [13], in [18], in test [14], in test [15] and in test [16] was > 100 µM (inactive) each time.
Turning to `N#CC(c1ccccc1)N(CCOCCOCCN(C(=O)c1cccc2ccccc12)C(C#N)c1ccccc1)C(=O)c1cccc2ccccc12` (stereo not given), the GI50 in [1] is 9.55 µM (inactive); in test [2] it was > 100 µM (inactive); in test [3], > 100 µM (inactive); in [4], > 100 µM (inactive); in test [5], > 100 µM (inactive); in [6] it was 52.1 µM (inactive). The GI50 in [7], in [8], in test [9], in test [10], in test [17] and in [11] was > 100 µM (inactive) in each case. Further, the GI50 in test [12], in test [13], in test [18], in test [19], in [14] and in [15] was > 100 µM (inactive) throughout. Also, the GI50 in test [16] is > 100 µM (inactive).
As for `CC[C@@]1(OC(=O)CN(C)C)C(=O)OCc2c1cc1n(c2=O)Cc2cc3ccccc3nc2-1`, the GI50 is 0.0481 µM (active) in test [1]; 0.173 µM (active) in test [2]; 0.701 µM (active) in [3]; 0.00569 µM (active) in test [4]; 0.0211 µM (active) in test [5]; 0.394 µM (active) in test [6]. Moreover, the GI50 is 0.00256 µM (active) in [7]; 0.0596 µM (active) in [8]; 0.0647 µM (active) in test [9]; 0.0973 µM (active) in [10]; 0.308 µM (active) in test [17]; < 0.0131 µM (active) in test [11]. In addition, the GI50 in test [12] was 0.098 µM (active); in test [13], 0.0259 µM (active); in test [18], 1.93 µM (inactive); in test [19] it was 0.0198 µM (active); in test [14] it was 0.129 µM (active); in test [15], 0.00875 µM (active). In addition, the GI50 in test [16] was 0.205 µM (active).
On to `C=C1CC2[C@H](C)C(=O)CCC2(C)C2=C1C1CCC(C(C)CCC(=C)C(C)C(=O)O)C1(C)CC2=O` (stereo not given in full), for which the GI50 in [1] is 32.5 µM (inactive); in test [2], 95.3 µM (inactive); in test [3] it was > 100 µM (inactive); in [4], 51.8 µM (inactive); in test [5], > 100 µM (inactive); in test [6], 49.4 µM (inactive). For the same compound, the GI50 is 11.8 µM (inactive) in test [7]; 75.7 µM (inactive) in test [8]; 95.5 µM (inactive) in test [9]; 32.1 µM (inactive) in [10]; > 100 µM (inactive) in test [17]; > 100 µM (inactive) in test [11]. Moreover, the GI50 in [12] was 61.7 µM (inactive); in test [13], 20.4 µM (inactive); in test [18], 44.9 µM (inactive); in test [19], 17.9 µM (inactive); in [14], 62.1 µM (inactive); in [15] it was 31.9 µM (inactive). Also, in test [16], the GI50 was > 100 µM (inactive).
Turning to `O=c1oc2c/c(=C\c3ccccn3)c(=O)c3cccc1c3-2`, the GI50 in test [1] is 35.2 µM (inactive); in test [2], > 100 µM (inactive); in test [4], > 100 µM (inactive); in test [5], > 100 µM (inactive); in test [6] it was > 100 µM (inactive); in test [7] it was 33.8 µM (inactive). The GI50 in test [8] was 16.5 µM (inactive); in test [10], 72.6 µM (inactive); in test [17] it was > 100 µM (inactive); in test [11], 30.8 µM (inactive); in test [20] it was 54.8 µM (inactive); in test [12], > 100 µM (inactive). Besides, the GI50 in test [13] is 14.6 µM (inactive); in test [18] it was 66.8 µM (inactive); in test [19] it was 29 µM (inactive); in [14], > 100 µM (inactive); in test [15], 44.7 µM (inactive).
Regarding `NC1=CN(Cc2ccccc2)C2=N/C(=C\c3ccccc3O)C(=O)N12`, the GI50 in test [1], in test [2], in test [3], in [4], in test [5] and in [6] was > 100 µM (inactive) in each case. Further, the GI50 in test [7] was 81.8 µM (inactive); in test [8] it was > 100 µM (inactive); in test [9], > 100 µM (inactive); in test [10] it was > 100 µM (inactive); in [17], > 100 µM (inactive); in [11], > 100 µM (inactive). Also, the GI50 in [12], in [13], in [18], in [19], in test [14] and in test [15] was > 100 µM (inactive) throughout. Also, the GI50 in test [16] was > 100 µM (inactive).
As to `C/C=C1\CC(C(=O)OCC)CCCCCCCCCCC1=O` (stereo not given), the GI50 is 33.4 µM (inactive) in [1]; 29.4 µM (inactive) in test [2]; 36.1 µM (inactive) in [3]; 91.2 µM (inactive) in [4]; > 100 µM (inactive) in test [5]; > 100 µM (inactive) in [6]. The GI50 is 37 µM (inactive) in test [7]; 43.3 µM (inactive) in test [8]; 27.7 µM (inactive) in [9]; 47.9 µM (inactive) in [10]; > 100 µM (inactive) in test [17]; 53.5 µM (inactive) in test [11]. Moreover, the GI50 in test [12] is 38.5 µM (inactive); in test [13], 70.1 µM (inactive); in [18], > 100 µM (inactive); in [19] it was 28.8 µM (inactive); in test [14], 46.8 µM (inactive); in test [15], 75 µM (inactive). Moreover, the GI50 in test [16] is > 100 µM (inactive).
Turning to `COC(=O)c1ccccc1C1CN=NC12Cc1ccc(C)c(C)c1C2=O` (stereo not given), the GI50 in test [1] was 29.6 µM (inactive); in [2], 77.4 µM (inactive); in test [3] it was > 100 µM (inactive); in test [4], 74 µM (inactive); in [5], 79.6 µM (inactive); in [6], 53.7 µM (inactive). Also, the GI50 in [7] was 34.3 µM (inactive); in test [8], > 100 µM (inactive); in [9], 61.2 µM (inactive); in test [10], 50.8 µM (inactive); in [17] it was > 100 µM (inactive); in [11], > 100 µM (inactive). The GI50 is > 100 µM (inactive) in test [12]; > 100 µM (inactive) in [13]; 56.2 µM (inactive) in [18]; 14.6 µM (inactive) in test [19]; 27.2 µM (inactive) in test [14]; > 100 µM (inactive) in [15]. The GI50 in [16] is > 100 µM (inactive).
In the case of `Cc1cccc(C)c1Nc1nc(C)c(C(=O)CC(=O)C(=O)Nc2c(C(C)C)cccc2C(C)C)s1`, the GI50 in [1], in test [2], in test [3], in test [4], in test [5] and in [6] was > 100 µM (inactive) in each case. Besides, the GI50 in test [8] is > 100 µM (inactive); in test [10], 78.3 µM (inactive); in [17] it was > 100 µM (inactive); in test [11], > 100 µM (inactive); in [20], 69.3 µM (inactive); in test [12], > 100 µM (inactive). Besides, the GI50 in test [13], in test [18], in test [19], in [14] and in test [15] was > 100 µM (inactive) in each case.
For `CC(C)=CCN=C(N)N`, the GI50 in test [1], in test [2], in test [3], in test [4], in test [5] and in test [6] was > 100 µM (inactive) each time. Moreover, the GI50 in test [7] is > 100 µM (inactive); in test [8], > 100 µM (inactive); in test [10] it was > 100 µM (inactive); in [17], > 100 µM (inactive); in [11], > 100 µM (inactive); in test [20] it was 16.7 µM (inactive). Besides, the GI50 in [12], in test [13], in test [18], in test [19], in test [14] and in [15] was > 100 µM (inactive) each time.
